In paper PMC12190640 (2025) one finds binding data, which are given here for 1 molecule.

The experiment relates to 37Cy3-74Cy5-riboSAM (RNA, riboswitch, Cy3-modified U at 37, Cy5-modified U at 74) GGGAAGAAAUAACAAUCAACGACGUAUCAUUGUGCCUCGCUUUCCGCGGGGCGAUAAGUCCUGAAGAAAGGGAUGAUAUGACAUAAGAACAUCGG
In words: smFRET (TIRF). Conditions: 50 mM Na+, 10 mM Tris-HCl pH 8.0, 25 °C, 0.5 mM SAM.

As to `C[S+](CC[C@H](N)C(=O)O)C[C@H]1O[C@@H](n2cnc3c(N)ncnc32)[C@H](O)[C@@H]1O` (some centres unmarked), the binding result was “yes” (2 mM Mg2+, stable EFRET ~0.8 population 18.5% to 37.6%) and “weak” (no Mg2+, no significant structural transition, same at 0.05 mM Mg2+).
